Source: US8618094B2, “Fused substituted aminopyrrolidine derivative” (Daiichi Sankyo Company, Limited, priority 2007, dated 2013)
Converted amounts (≈) assume the structure as drawn. Where a name gives a salt, the structure may show the parent alone. Each block holds one compound with its values, some of them ahead of it.

How the values were obtained:
[1] = tested on: E. cloacae 03400; assay: Antibacterial activity (MIC), standard method of the Japanese Society of Chemotherapy; assay type: cell-based; details: Enterobacter cloacae
Method: (§1) Antibacterial activity of the compounds of the present invention was measured in accordance with the standard method specified by the Japanese Society of Chemotherapy.

[2] = tested on: E. coli NIHJ; assay: as above; assay type: cell-based; details: Escherichia coli
Method: as §1

[3] = tested on: E. faecalis 19433; assay: as above; assay type: cell-based; details: Enterococcus faecalis
Method: as §1

[4] = tested on: H. influenzae ATCC49247; assay: as above; assay type: cell-based; details: Haemophilus influenzae; H. influenzae ATCC49247 (first half of Table 2); read-out: MIC, H. influenzae ATCC49247
Method: as §1

[5] = tested on: K. pneumoniae TYPE 1; assay: as above; assay type: cell-based; details: Klebsiella pneumoniae, TYPE1
Method: as §1

[6] = tested on: M(B). Caterrhalis ATCC25238; assay: as above; assay type: cell-based; details: M(B). Caterrhalis ATCC25238 (first half of Table 2); read-out: MIC, M(B). Caterrhalis ATCC25238
Method: as §1

[7] = tested on: P. aeruginosa PAO1; assay: as above; assay type: cell-based; details: Pseudomonas aeruginosa
Method: as §1

[8] = tested on: P. mirabilis 08103; assay: as above; assay type: cell-based; details: Proteus mirabilis
Method: as §1

[9] = tested on: S. aureus 870307; assay: as above; assay type: cell-based; details: Staphylococcus aureus
Method: as §1

[10] = tested on: S. aureus FDA 209-P; assay: as above; assay type: cell-based; details: Staphylococcus aureus, FDA209
Method: as §1

[11] = tested on: S. epidermidis 56500; assay: as above; assay type: cell-based; details: Staphylococcus epidermidis
Method: as §1

[12] = tested on: S. marcescens 10100; assay: as above; assay type: cell-based; details: Serratia marcescens
Method: as §1

[13] = tested on: S. pneumoniae 104835; assay: as above; assay type: cell-based; details: Streptococcus pneumoniae
Method: as §1

[14] = tested on: S. pneumoniae J24; assay: as above; assay type: cell-based; details: Streptococcus pneumoniae
Method: as §1

[15] = tested on: S. pyogenes JCM5674(ATCC12344); assay: as above; assay type: cell-based; details: Streptococcus pyogenes
Method: as §1

melting point: 202 to 204 °C
Compound: COc1c(N2CC3(N)CCC4CC43C2)c(F)cc2c(=O)c(C(=O)O)cn([C@@H]3C[C@@H]3F)c12 (stereo partly drawn) (as salt: methanesulfonate) [Example 57, 7-[6-amino-8-azatricyclo[4.3.0.0^1,3]nonan-8-yl]-6-fluoro-1-[(1R,2S)-2-fluorocyclopropan-1-yl]-8-methoxy-4-oxo-1,4-dihydroquinoline-3-carboxylic acid methanesulfonate]

melting point: 171 to 174 °C
Compound: COc1c(N2C[C@@H]3CCC[C@]3(N)C2)c(F)cc2c(=O)c(C(=O)O)cn([C@@H]3C[C@@H]3F)c12 (relative stereo) [Example 12, 7-[(1R*,5S*)-1-Amino-3-azabicyclo[3.3.0]octan-3-yl]-6-fluoro-1-[(1R,2S)-2-fluorocyclopropyl]-8-methoxy-1,4-dihydro-4-oxoquinoline-3-carboxylic acid]

MIC [1]: 0.012 µg/mL (≈ 0.0287 µM)
MIC [2]: 0.012 µg/mL (≈ 0.0287 µM)
MIC [3]: 0.2 µg/mL (≈ 0.479 µM)
MIC [4]: 0.006 µg/mL (≈ 0.0144 µM)
MIC [5]: 0.05 µg/mL (≈ 0.12 µM)
MIC [6]: 0.025 µg/mL (≈ 0.0599 µM)
MIC [7]: 0.39 µg/mL (≈ 0.934 µM)
MIC [8]: 0.025 µg/mL (≈ 0.0599 µM)
MIC [9]: 0.39 µg/mL (≈ 0.934 µM)
MIC [10]: 0.025 µg/mL (≈ 0.0599 µM)
MIC [11]: 0.1 µg/mL (≈ 0.24 µM)
MIC [12]: 0.1 µg/mL (≈ 0.24 µM)
MIC [13]: 0.39 µg/mL (≈ 0.934 µM)
MIC [14]: 0.05 µg/mL (≈ 0.12 µM)
MIC [15]: 0.05 µg/mL (≈ 0.12 µM)
Compound: COc1c(N2CC3=CCCC3(N)C2)c(F)cc2c(=O)c(C(=O)O)cn([C@@H]3C[C@@H]3F)c12 (single isomer, unassigned) [Example 25]

melting point: 122 to 125 °C
Compound: COc1c(N2C[C@H]3C(CF)C[C@@]3(N)C2)c(F)cc2c(=O)c(C(=O)O)cn([C@@H]3C[C@@H]3F)c12 (single isomer, unassigned) [Example 49]

melting point: 193 to 195 °C
Compound: COc1c(N2C[C@H]3C(CF)C[C@@]3(N)C2)c(F)cc2c(=O)c(C(=O)O)cn([C@@H]3C[C@@H]3F)c12 (single isomer, unassigned) [Example 50]

melting point: 130 to 133 °C
Compound: Cc1c(N2C[C@H]3C(CF)C[C@@]3(N)C2)c(F)cc2c(=O)c(C(=O)O)cn([C@@H]3C[C@@H]3F)c12 (single isomer, unassigned) [Example 51]

melting point: 145 to 149 °C
Compound: Cc1c(N2CC3(N)CCC4CC43C2)c(F)cc2c(=O)c(C(=O)O)cn([C@@H]3C[C@@H]3F)c12 (single isomer, unassigned) [Example 54]

melting point: > 254 °C (dec.)
Compound: Cc1c(N2CC3(N)CCC4CC43C2)ccc2c(=O)c(C(=O)O)cn([C@@H]3C[C@@H]3F)c12 (single isomer, unassigned) [Example 55]

melting point: 123 to 125 °C
Compound: COc1c(N2CC3(C)CCC3(N)C2)c(F)cc2c(=O)c(C(=O)O)cn([C@@H]3C[C@@H]3F)c12 (stereo in doubt) [Example 7, 7-[(1R,5S)-1-Amino-5-methyl-3-azabicyclo[3.2.0]hept-3-yl]-6-fluoro-1-[(1R,2S)-2-fluorocyclopropyl]-1,4-dihydro-8-methoxy-4-oxoquinoline-3-carboxylic acid]

melting point: 161 to 163 °C
Compound: COc1c(N2CC3(Cl)CCC[C@@]3(N)C2)c(F)cc2c(=O)c(C(=O)O)cn([C@@H]3C[C@@H]3F)c12 (stereo in doubt) [Example 53, 7-[(1R,5R)-1-Amino-5-chloro-3-azabicyclo[3.3.0]octan-3-yl]-6-fluoro-1-[(1R,2S)-2-fluorocyclopropan-1-yl]-1,4-dihydro-8-methoxy-4-oxoquinoline-3-carboxylic acid]

MIC [2]: ≤ 0.003 µg/mL
MIC [3]: 0.78 µg/mL (≈ 2.35 µM)
MIC [7]: 0.05 µg/mL (≈ 0.151 µM)
MIC [8]: 0.012 µg/mL (≈ 0.0362 µM)
MIC [9]: > 6.25 µg/mL
MIC [10]: 0.1 µg/mL (≈ 0.302 µM)
MIC [11]: 0.2 µg/mL (≈ 0.604 µM)
MIC [13]: > 6.25 µg/mL
MIC [14]: 0.78 µg/mL (≈ 2.35 µM)
MIC [15]: 0.39 µg/mL (≈ 1.18 µM)
Compound: O=C(O)c1cn(C2CC2)c2cc(N3CCNCC3)c(F)cc2c1=O [CPFX, ciprofloxacin, reference compound]

melting point: 122 to 124 °C
Compound: C[C@H]1C[C@@]2(N)CN(c3c(F)cc4c(=O)c(C(=O)O)cn5c4c3OC[C@@H]5C)C[C@@H]12 [Example 3, 10-{(1S,5R,6S)-1-Amino-6-methyl-3-azabicyclo[3.2.0]hept-3-yl}-9-fluoro-2,3-dihydro-3-(S)-methyl-7-oxo-7H-pyrido[1,2,3-de][1, 4]benzoxazine-6-carboxylic acid]

melting point: 235 °C (dec.)
Compound: COc1c(N2C[C@]3(N)CC[C@]3(F)C2)c(F)cc2c(=O)c(C(=O)O)cn([C@@H]3C[C@@H]3F)c12 [Example 6, 7-[(1R,5S)-1-Amino-5-fluoro-3-azabicyclo[3.2.0]hept-3-yl]-6-fluoro-1-[(1R,2S)-2-fluorocyclopropyl]-1,4-dihydro-8-methoxy-4-oxoquinoline-3-carboxylic acid]

melting point: 285 to 293 °C (dec.)
Compound: C[C@H]1COc2c(N3C[C@]4(N)CCC[C@]4(F)C3)c(F)cc3c(=O)c(C(=O)O)cn1c23 [Example 13, 10-[(1R,5S)-1-Amino-5-fluoro-3-azabicyclo[3.3.0]octan-3-yl]-9-fluoro-2,3-dihydro-3-(S)-methyl-7-oxo-7H-pyrido[1,2,3-de][1,4]benzoxazine-6-carboxylic acid]

melting point: 268 to 280 °C (dec.)
Compound: N#Cc1c(N2C[C@]3(N)CCC[C@]3(F)C2)c(F)cc2c(=O)c(C(=O)O)cn([C@@H]3C[C@@H]3F)c12 [Example 14, 7-[(1R,5S)-1-Amino-5-fluoro-3-azabicyclo[3.3.0]octan-3-yl]-8-cyano-6-fluoro-1-[(1R,2S)-2-fluorocyclopropan-1-yl]-1,4-dihydro-4-oxoquinoline-3-carboxylic acid]

melting point: 179 to 181 °C
Compound: COc1c(N2C[C@H]3[C@H](F)CC[C@@]3(N)C2)c(F)cc2c(=O)c(C(=O)O)cn([C@@H]3C[C@@H]3F)c12 [Example 20, 7-{(1S,5R,6R)-1-Amino-6-fluoro-3-azabicyclo[3,3,0]octan-3-yl}-6-fluoro-1-[(1R,2S)-2-fluorocyclopropyl]-1,4-dihydro-8-methoxy-4-oxoquinoline-3-carboxylic acid]

melting point: 117 to 119 °C
Compound: COc1c(N2C[C@H]3[C@@H](F)CC[C@@]3(N)C2)c(F)cc2c(=O)c(C(=O)O)cn([C@@H]3C[C@@H]3F)c12 [Example 21, 7-[(1S,5R,6S)-1-Amino-6-fluoro-3-azabicyclo[3,3,0]octan-3-yl]-6-fluoro-1-[(1R,2S)-2-fluorocyclopropyl]-1,4-dihydro-8-methoxy-4-oxoquinoline-3-carboxylic acid]

melting point: 239 to 241 °C
Compound: COc1c(N2C[C@H]3C(F)(F)CC[C@@]3(N)C2)c(F)cc2c(=O)c(C(=O)O)cn([C@@H]3C[C@@H]3F)c12 [Example 22, 7-[(1S,5R)-1-Amino-6,6-difluoro-3-azabicyclo[3,3,0]octan-3-yl]-6-fluoro-1-[(1R,2S)-2-fluorocyclopropyl]-1,4-dihydro-8-methoxy-4-oxoquinoline-3-carboxylic acid]

melting point: 158 to 160 °C
Compound: Cc1c(N2C[C@H]3CCOC[C@@]3(N)C2)c(F)cc2c(=O)c(C(=O)O)cn([C@@H]3C[C@@H]3F)c12 [Example 41, 7-[(1S,6R)-1-Amino-3-oxa-8-azabicyclo[4,3,0]nonan-8-yl]-6-fluoro-1-[(1R,2S)-2-fluorocyclopropyl]-1,4-dihydro-8-methyl-4-oxoquinoline-3-carboxylic acid]

melting point: > 300 °C
Compound: C[C@H]1COc2c(N3C[C@@H]4CCOC[C@@]4(N)C3)c(F)cc3c(=O)c(C(=O)O)cn1c23 [Example 42, 10-[(1S,6S)-1-Amino-3-oxa-8-azabicyclo[4,3,0]nonan-8-yl]-9-fluoro-2,3-dihydro-3-methyl-(S)-7-oxo-7H-pyrido[1,2,3-de][1,4]benzoxazine-6-carboxylic acid]

melting point: > 272 °C (dec.)
Compound: Cc1c(N2C[C@]3(N)CC[C@]3(F)C2)c(F)cc2c(=O)c(C(=O)O)cn([C@@H]3C[C@@H]3F)c12 [Example 56, 7-{(1R,5S)-1-Amino-5-fluoro-3-azabicyclo[3.2.0]heptan-3-yl}-6-fluoro-1-[(1R,2S)-2-fluorocyclopropan-1-yl]-8-methyl-4-oxo-1,4-dihydroquinoline-3-carboxylic acid]

melting point: 201 to 202 °C
Compound: COc1c(N2C[C@H]3COC[C@@]3(N)C2)c(F)cc2c(=O)c(C(=O)O)cn([C@@H]3C[C@@H]3F)c12 [Example 59, 7-[(3aS)-3a-Aminotetrahydrofuro[3,4-c]pyrrol-5-yl]-6-fluoro-1-[(1R,2S)-2-fluorocyclopropyl]-1,4-dihydro-8-methoxy-4-oxoquinoline-3-carboxylic acid]

MIC [3]: 0.2 µg/mL (≈ 0.498 µM)
MIC [5]: 0.1 µg/mL (≈ 0.249 µM)
MIC [7]: 0.78 µg/mL (≈ 1.94 µM)
MIC [8]: 0.025 µg/mL (≈ 0.0623 µM)
MIC [9]: 0.78 µg/mL (≈ 1.94 µM)
MIC [10]: 0.05 µg/mL (≈ 0.125 µM)
MIC [11]: 0.1 µg/mL (≈ 0.249 µM)
MIC [12]: 0.2 µg/mL (≈ 0.498 µM)
MIC [13]: 3.13 µg/mL (≈ 7.8 µM)
MIC [14]: 0.1 µg/mL (≈ 0.249 µM)
MIC [15]: 0.2 µg/mL (≈ 0.498 µM)
Compound: COc1c(N2C[C@@H]3CCCN[C@@H]3C2)c(F)cc2c(=O)c(C(=O)O)cn(C3CC3)c12 [MXFX, moxifloxacin, reference compound]
